Experiments:
Puccinia recondita = test: Fungicidal activity against wheat leaf rust (WLR) disease, control value; type: in vivo; details: wheat leaf rust
[1] = tested on: Pyricularia oryzae Carvara KA301; test: whole plant or invertebrate; type: in vivo; details: rice blast
Phytophthora infestans = test: whole plant or invertebrate; type: in vivo; details: tomato late blight
Rhizoctonia solani AG-1 = test: Fungicidal activity against rice sheath blight (RSB) disease, control value; details: rice sheath blight
Botrytis cinerae = test: Fungicidal activity against cucumber gray mold rot (CGM) disease, control value; type: in vivo; details: 100 ppm, cucumber gray mold rot
Procedure: Botrytis cinerae, which was isolated from cucumber infected thereby, was inoculated on a potato agar medium (PEC) and cultured under a 12L/12D cycle at 25° C. for 15 days to form spore. The spores were scraped, filtered through a gauze and then suspended in Potato Dextrose broth at a concentration of 1×10^6 spore/ml. The spore suspension was sprayed on a cucumber plant having one leaf. The cucumber plant was held in a humidified room at 20° C. for 3 days. L.A. on a leaf was measured to calculate a C.V.

Erysiphae graminis = test: Fungicidal activity against barley powdery mildew (BPM) disease, control value; type: in vivo; details: barley powdery mildew

Compound	WLR control value (C.V.) (Puccinia recondita; 2 ppm) [%]	WLR control value (C.V.) (Puccinia recondita; 10 ppm) [%]	WLR control value (C.V.) (Puccinia recondita; 50 ppm) [%]	WLR control value (C.V.) (Puccinia recondita; 100 ppm) [%]	RCB control value (C.V.) ([1]; 2 ppm) [%]	RCB control value (C.V.) ([1]; 10 ppm) [%]	RCB control value (C.V.) ([1]; 50 ppm) [%]	RCB control value (C.V.) ([1]; 100 ppm) [%]	TLB control value (C.V.) (Phytophthora infestans; 2 ppm) [%]	TLB control value (C.V.) (Phytophthora infestans; 10 ppm) [%]	TLB control value (C.V.) (Phytophthora infestans; 50 ppm) [%]	TLB control value (C.V.) (Phytophthora infestans; 100 ppm) [%]	RSB control value (C.V.) (Rhizoctonia solani AG-1; 100 ppm) [%]	CGM control value (C.V.) (Botrytis cinerae) [%]	BPM control value (C.V.) (Erysiphae graminis; 2 ppm) [%]	BPM control value (C.V.) (Erysiphae graminis; 10 ppm) [%]	BPM control value (C.V.) (Erysiphae graminis; 50 ppm) [%]	BPM control value (C.V.) (Erysiphae graminis; 100 ppm) [%]	RSB control value (C.V.) (Rhizoctonia solani AG-1; 2 ppm) [%]	RSB control value (C.V.) (Rhizoctonia solani AG-1; 10 ppm) [%]	also measured
CO/N=C(/C(=O)OC)c1ccccc1CON=C(C)c1cccc(C=C(Cl)Cl)c1 [Example 19, methyl-(E)-2-[[[[[2-[3-(2,2-dichlorovinyl)phenyl](1-methyl)methylidene]amino]oxy]methyl]phenyl]-2-methoxyiminoacetate]	98	100	100	100	98	100	100	100	80	92	100	100	80	59	100	100	100	100	–	–	–
CNC(=O)/C(=N/OC)c1ccccc1CON=C(C)c1cccc(C=C(Cl)Cl)c1 [Example 20, (E)-2-[[[[[2-[3-(2,2-dichlorovinyl)phenyl](1-methyl)methylidene]amino]oxy]methyl]phenyl]-2-methoxyimino-N-methylacetamide]	30	90	98	100	90	97	100	100	98	100	100	100	75	74	100	100	100	100	–	–	–
CO/N=C(/C(=O)OC)c1ccccc1CON=C(C)c1ccc(C=C(Cl)Cl)cc1 [Example 21, methyl-(E)-2-[[[[[2-[4-(2,2-dichlorovinyl)phenyl](1-methyl)methylidene]amino]oxy]methyl]phenyl]-2-methoxyiminoacetate]	40	90	100	100	30	90	100	100	0	35	95	98	60	50	20	50	95	95	–	–	–
CNC(=O)/C(=N/OC)c1ccccc1CON=C(C)c1ccc(C=C(Cl)Cl)cc1 [Example 22, (E)-2-[[[[[2-[4-(2,2-dichlorovinyl)phenyl](1-methyl)methylidene]amino]oxy]methyl]phenyl]-2-methoxyimino-N-methylacetamide]	100	100	100	100	100	100	100	100	90	100	100	100	100	45	98	100	100	100	90	98	RSB control value (C.V.) (Rhizoctonia solani AG-1; 50 ppm): 100%
CO/N=C(/C(=O)OC)c1ccccc1CON=C(C)c1cccc(C=C(Br)Br)c1 [Example 23, methyl-(E)-2-[[[[[2-[3-(2,2-dibromovinyl)phenyl](1-methyl)methylidene]amino]oxy]methyl]phenyl]-2-methoxyiminoacetate]	–	–	–	80	90	97	100	100	–	–	55	93	100	34	20	50	80	95	98	100	RSB control value (C.V.) (Rhizoctonia solani AG-1; 50 ppm): 100%
CNC(=O)/C(=N/OC)c1ccccc1CON=C(C)c1cccc(C=C(Br)Br)c1 [Example 24, (E)-2-[[[[[2-[3-(2,2-dibromovinyl)phenyl](1-methyl)methylidene]amino]oxy]methyl]phenyl]-2-methoxyimino-N-methylacetamide]	0	35	95	98	98	100	100	100	–	–	–	50	100	60	10	60	90	100	30	90	RSB control value (C.V.) (Rhizoctonia solani AG-1; 50 ppm): 100%
CO/N=C(/C(=O)OC)c1ccccc1CON=C(C)c1ccc(C=C(Br)Br)cc1 [Example 25, methyl-(E)-2-[[[[[2-[4-(2,2-dibromovinyl)phenyl](1-methyl)methylidene]amino]oxy]methyl]phenyl]-2-methoxyiminoacetate]	100	100	100	100	100	100	100	100	93	100	100	100	100	35	100	100	100	100	90	98	RSB control value (C.V.) (Rhizoctonia solani AG-1; 50 ppm): 100%
CNC(=O)/C(=N/OC)c1ccccc1CON=C(C)c1ccc(C=C(Br)Br)cc1 [Example 26, (E)-2-[[[[[2-[4-(2,2-dibromovinyl)phenyl](1-methyl)methylidene]amino]oxy]methyl]phenyl]-2-methoxyimino-N-methylacetamide]	90	90	98	100	90	97	100	100	98	100	100	100	32	7	99	100	100	100	–	–	–
CO/N=C(/C(=O)OC)c1ccccc1CON=C(C)c1cccc(C=C(F)F)c1 [Example 27, methyl-(E)-2-[[[[[2-[3-(2,2-difluorovinyl)phenyl](1-methyl)methylidene]amino]oxy]methyl]phenyl]-2-methoxyiminoacetate]	100	100	100	100	90	97	100	100	98	100	100	100	0	55	98	100	100	100	–	–	–
CNC(=O)/C(=N/OC)c1ccccc1CON=C(C)c1cccc(C=C(F)F)c1 [Example 28, (E)-2-[[[[[2-[3-(2,2-difluorovinyl)phenyl](1-methyl)methylidene]amino]oxy]methyl]phenyl]-2-methoxyimino-N-methylacetamide]	40	90	100	100	–	–	70	95	–	–	–	60	35	50	–	–	60	90	–	–	–

Source: patent publication US8410302B2, “Methoxyimino compounds and fungicide composition comprising same” (Kyung Nong Corporation, priority 2007, dated 2013)
